Assay results taken from PMC9400670, “Establishing the selective phospholipid membrane coordination, permeation and lysis properties for a series of ‘druggable’ supramolecular self-associating antimicrobial amphiphiles” (Chemical Science, 2022).

Tested on: human intestinal Caco-2 cells
Test: Caco-2 permeability assay
Assay type: in vitro ADME
Protocol: Section 4: DMPK Methods and Further Discussion […]
Caco-2 Permeability studies: The permeability assay for SSA 1-6 and 10 was performed at Cyprotex Discovery Limited (Macclesfield, UK) and analysed at Cancer Research Horizons. SSA 1-6 and 10 were incubated at a final concentration of 10 uM with human intestinal Caco-2 cells at 37°C, 5% CO2 with a relative humidity of 95%. After 120 minutes the apical compartment inserts and the companion plates were separated, and the apical and basolateral samples were transferred. Incubations were conducted in duplicate and the fluorescent membrane integrity marker; Lucifer Yellow was co-incubated with the SSA compounds at the start of the assay. Compounds of known permeability were used as controls and were within acceptance criteria. Further processing is described in:
Sample preparation and liquid chromatography-mass spectrometry analysis.
Sample preparation and liquid chromatography-mass spectrometry analysis: All samples were centrifuged at 3500 rpm at 4°C for 10 min to precipitate protein and enable sampling of supernatant prior to appropriate dilution for liquid chromatography-mass spectrometry (LC-MS/MS analysis). […]
(1.5 µm, 50 x 2.1 mm) at a temperature of 40°C and a binary mobile phase gradient at a flow rate of […]
0.4 mL/min. […]
For the purpose of apparent permeability determination, samples were analysed using a Waters I-Class ultra-high-performance liquid chromatography (UHPLC) system coupled to a Waters Vion mass spectrometer (Waters, Elstree, UK). Separation of analytes was achieved used an Accucore Vanquish C18+ column (1.5 µm, 50 x 2.1 mm) at a temperature of 40°C and a binary mobile phase gradient at a flow rate of 0.4 mL/min. Initial LC conditions for SSA 1-4 comprised 66% solvent A (0.1% formic acid + 5 mM ammonium acetate in water), 33% solvent B (0.1% formic acid + 5 mM ammonium acetate in methanol); this was ramped to 63% B at 1.8 min and 95% B at 1.9 min, held for 0.5 min and then immediately returned to initial conditions and held for the remaining 0.5 min of the method. Initial LC conditions for SSA 5-10 comprised 54% solvent A (0.1% formic acid + 5 mM ammonium acetate in water), 46% solvent B (0.1% formic acid + 5 mM ammonium acetate in methanol); this was ramped to 67% B at 1.8 min and 95% B at 1.9 min, held for 0.5 min and then immediately returned to initial conditions and held for the remaining 0.5 min of the method.
Sample analysis was by electrospray ionisation in negative ion mode. The capillary voltage was 2.5 kV, desolvation gas was 600°C.
For the purpose of PK determination of SSA 5, samples were analysed using a Waters I-Class ultra-high-performance liquid chromatography (UHPLC) system coupled to a Waters Xevo TQ-XS mass spectrometer. Separation of analytes was achieved using an Accucore Vanquish C18+ column (1.5 µm, 50 x 2.1 mm) at a temperature of 40°C and a binary mobile phase gradient at a flow rate of 0.4 mL/min. Initial LC conditions comprised 54% solvent A (0.1% formic acid + 5 mM ammonium acetate in water), 46% solvent B (0.1% formic acid + 5 mM ammonium acetate in methanol); this was ramped to 67% B at 1.8 min and 95% B at 1.9 min, held for 0.5 min and then immediately returned to initial conditions and held for the remaining 0.5 min of the method. Sample analysis was by electrospray ionisation combined with multiple reaction monitoring in negative ion mode. The […]
Mean blood concentration-time profile: Within these studies SSAs 3 and 5 were dosed at 1 mg/kg, to female CD-1 mice (n=9 per SSA) via an intravenous tail vein bolus dose formulation as solutions in 2 % DMSO/98 % water. Blood taken from the mouse tail vein was extracted by protein precipitation.
SSA concentrations were calculated through UPLC-MS/MS techniques, with tolbutamide as the internal standard. The assay met the acceptance criteria with >7 calibration standards within ± 20% of nominal concentration. The lower limit of quantitation was 2 ng/mL for both compounds. PK […]

[1] = % SSA recovered from the assay after 2 hours

Recovery (A-B) [1]: 99%
Recovery (B-A) [1]: 98%
Papp (B-A) (Caco-2, 10 uM, 120 minutes, n = 2 technical repeats): 5.6 ×10⁻⁶ cm/s
Papp (B-A) class (Caco-2, in words): moderate
Compound: O=C(NCS(=O)(=O)O)Nc1ccc(C(F)(F)F)cc1 [SSA 3]
